From US8455475B2 (Gruenenthal GmbH, priority 2009, dated 2013)

Biological target: T1, rat B1R (bradykinin receptor 1) (Rattus norvegicus, UniProt P97583)
T1 construct: expressed in transfected cells; host or cells: CHO K1 cells
T1 sequence (P97583 1-337): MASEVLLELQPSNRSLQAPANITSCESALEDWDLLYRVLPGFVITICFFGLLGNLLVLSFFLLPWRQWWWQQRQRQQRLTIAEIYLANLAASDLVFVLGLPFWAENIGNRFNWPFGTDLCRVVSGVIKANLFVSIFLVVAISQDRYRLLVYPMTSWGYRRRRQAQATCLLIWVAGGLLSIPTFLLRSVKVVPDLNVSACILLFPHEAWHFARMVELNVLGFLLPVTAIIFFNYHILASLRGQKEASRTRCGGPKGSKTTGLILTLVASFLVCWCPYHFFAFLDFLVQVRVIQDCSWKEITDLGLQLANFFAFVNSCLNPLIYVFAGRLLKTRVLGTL
Assay: FLIPR Ca2+ assay (Fluo-4) on CHO K1 cells stably transfected with the B1R gene of the rat (rB1R cells): % inhibition at 10 μM / IC50, agonist Des-Arg9-bradykinin
Format: cell-based
Details: CHO-K1, rat B1R
Procedure, shortened: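 Stable CHO K1 lines, Fluo-4 dye, probenecid-containing buffer. Cpd 10 μM or dose range, 10–20 min, then EC80 agonist (h: Lys-Des-Arg9-BK; r: Des-Arg9-BK). Readout peak FC; % inhibition vs max; IC50 from n=2–3, N≥2.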

Compound	inhibition at 10 µM
O=C(NC1CCCCC1)N1CCC2(CC1)CCN(C(=O)c1ccc3c(c1)C(N(C(=O)c1ccccc1Cl)C1CC1)CC3)C2 (stereo not shown) [IND_CC-717, 2-[3-[(2-Chloro-benzoyl)-cyclopropyl-amino]-2,3-dihydro-1H-indene-5-carbonyl]-N-cyclohexyl-2,8-diazaspiro[4.5]decane-8-carboxylic acid amide]	72%
O=C(Nc1c(Cl)cccc1Cl)N1CCC2(CC1)CCN(C(=O)c1ccc3c(c1)C(N(C(=O)c1ccccc1Cl)C1CC1)CC3)C2 (stereo not shown) [IND_CC-718, 2-[3-[(2-Chloro-benzoyl)-cyclopropyl-amino]-2,3-dihydro-1H-indene-5-carbonyl]-N-(2,6-dichloro-phenyl)-2,8-diazaspiro[4.5]decane-8-carboxylic acid amide]	52%
O=C(Nc1ccc(F)cc1F)N1CCC2(CC1)CCN(C(=O)c1ccc3c(c1)C(N(C(=O)c1ccccc1Cl)C1CC1)CC3)C2 (stereo not shown) [IND_CC-719, 2-[3-[(2-Chloro-benzoyl)-cyclopropyl-amino]-2,3-dihydro-1H-indene-5-carbonyl]-N-(2,4-difluoro-phenyl)-2,8-diazaspiro[4.5]decane-8-carboxylic acid amide]	59%
O=C(Nc1cc(F)cc(F)c1)N1CCC2(CC1)CCN(C(=O)c1ccc3c(c1)C(N(C(=O)c1ccccc1Cl)C1CC1)CC3)C2 (stereo not shown) [IND_CC-720, 2-[3-[(2-Chloro-benzoyl)-cyclopropyl-amino]-2,3-dihydro-1H-indene-5-carbonyl]-N-(3,5-difluoro-phenyl)-2,8-diazaspiro[4.5]decane-8-carboxylic acid amide]	80%
O=C(NCc1ccc(Cl)c(Cl)c1)N1CCC2(CC1)CCN(C(=O)c1ccc3c(c1)C(N(C(=O)c1ccccc1Cl)C1CC1)CC3)C2 (stereo not shown) [IND_CC-721, 2-[3-[(2-Chloro-benzoyl)-cyclopropyl-amino]-2,3-dihydro-1H-indene-5-carbonyl]-N-[(3,4-dichlorophenyl)-methyl]-2,8-diazaspiro[4.5]decane-8-carboxylic acid amide]	70%
Cc1c(CN2CCC3(CC2)CCN(C(=O)c2ccc4c(c2)C(NC(=O)c2cccc(Cl)c2Cl)CC4)C3)cnn1C (stereo not shown) [IND_CC-722, 2,3-Dichloro-N-[6-[8-[(1,5-dimethyl-1H-pyrazol-4-yl)-methyl]-2,8-diazaspiro[4.5]decane-2-carbonyl]-2,3-dihydro-1H-inden-1-yl]-benzamide]	81%

Other lines, results leading:

inhibition at 10 µM	Compound
55%	Cc1noc(C)c1CN1CCC2(CC1)CCN(C(=O)c1ccc3c(c1)C(NC(=O)c1cccc(Cl)c1Cl)CC3)C2 (stereo not shown) [IND_CC-723, 2,3-Dichloro-N-[6-[8-[(3,5-dimethyl-isoxazol-4-yl)-methyl]-2,8-diazaspiro[4.5]decane-2-carbonyl]-2,3-dihydro-1H-inden-1-yl]-benzamide]
86%	N#Cc1ccccc1CN1CCC2(CC1)CCN(C(=O)c1ccc3c(c1)C(NC(=O)c1cccc(Cl)c1Cl)CC3)C2 (stereo not shown) [IND_CC-724, 2,3-Dichloro-N-[6-[8-[(2-cyano-phenyl)-methyl]-2,8-diazaspiro[4.5]decane-2-carbonyl]-2,3-dihydro-1H-inden-1-yl]-benzamide]
56%	O=C(NC1CCc2ccc(C(=O)N3CCC4(CCN(Cc5c(F)cccc5Cl)CC4)C3)cc21)c1cccc(Cl)c1Cl (stereo not shown) [IND_CC-725, 2,3-Dichloro-N-[6-[8-[(2-chloro-6-fluoro-phenyl)-methyl]-2,8-diazaspiro[4.5]decane-2-carbonyl]-2,3-dihydro-1H-inden-1-yl]-benzamide]
67%	O=C(NC1CCc2ccc(C(=O)N3CCC4(CCN(Cc5ccc(F)cc5Cl)CC4)CC3)cc21)c1cccc(Cl)c1Cl (stereo not shown) [IND_CC-726, 2,3-Dichloro-N-[6-[9-[(2-chloro-4-fluoro-phenyl)-methyl]-3,9-diazaspiro[5.5]undecane-3-carbonyl]-2,3-dihydro-1H-inden-1-yl]-benzamide]
